Molecular target: T1, immobilized CGTase (Geobacillus stearothermophilus, UniProt P31797)
T1 construct: purchased Hayashibara Biochemical Research Institute
T1 sequence (P31797 32-711): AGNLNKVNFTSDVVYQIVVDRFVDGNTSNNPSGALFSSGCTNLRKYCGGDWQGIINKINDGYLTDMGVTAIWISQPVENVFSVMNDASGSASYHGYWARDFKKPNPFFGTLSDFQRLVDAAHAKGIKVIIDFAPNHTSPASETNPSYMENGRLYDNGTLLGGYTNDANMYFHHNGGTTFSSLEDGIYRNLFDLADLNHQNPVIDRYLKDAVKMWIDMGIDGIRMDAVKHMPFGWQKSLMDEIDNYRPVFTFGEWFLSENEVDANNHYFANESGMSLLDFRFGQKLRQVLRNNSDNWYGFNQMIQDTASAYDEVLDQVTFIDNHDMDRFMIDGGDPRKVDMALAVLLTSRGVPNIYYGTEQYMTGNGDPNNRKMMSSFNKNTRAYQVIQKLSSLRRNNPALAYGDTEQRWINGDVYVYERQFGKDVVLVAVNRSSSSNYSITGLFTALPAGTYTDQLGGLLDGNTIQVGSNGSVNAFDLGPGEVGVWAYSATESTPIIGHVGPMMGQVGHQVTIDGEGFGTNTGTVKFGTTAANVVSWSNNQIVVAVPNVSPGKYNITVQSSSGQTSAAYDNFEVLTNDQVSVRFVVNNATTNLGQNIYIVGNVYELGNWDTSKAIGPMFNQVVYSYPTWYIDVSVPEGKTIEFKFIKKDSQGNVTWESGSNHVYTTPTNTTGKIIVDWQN
Assay: Stabilization of immobilized CGTase in sugar transfer reaction solution of moranoline (enzyme activity retention rate)
Type: biochemical, Bacillus stearothermophilus
Settings: 2.5 w/v% moranoline and 25 w/v% Amicol No. 6L
Description: The immobilized CGTase, 10 ml, obtained in Reference Example 1 was added to 100 ml of aqueous solution with the pH being not adjusted containing 2.5 w/v% of moranoline and 25 w/v% of Amicol No. 6L [manufactured by Nichiden Chemical Co., Ltd.] followed by rotary shaking at 55° C. […] (after a definite period of time as illustrated below) the beads (immobilized CGTase) were filtered through a glass filter. After thoroughly washing with water, the enzyme activity of the immobilized CGTase was determined as follows.
(§1) The beads (washed immobilized CGTase after a definite period of time at 55° C.), 1 ml, was added to 10 ml of aqueous solution with the pH being not adjusted containing 2.5 w/v% of moranoline and 25 w/v% of Amicol No. 6L followed by reacting at 55° C. for 24 hours. The reaction solution 3 ml, was passed through 7 ml of strongly acidic ion exchange resin DOWEX 50W×2 (H ). After thoroughly washing with water, elution was performed with 0.5N ammonia water. The eluate was concentrated to dryness under reduced pressure and the residue was dissolved in 3 ml of water. 10 μl of the solution was applied to and analyzed by high performance liquid chromatography to determine a concentration of the unreacted moranoline. The analytical conditions for high performance liquid chromatography were as follows: column (Nucleosil 5NH2, 5 μm, 4 mm i.d.×25 cm), developing solvent acetonitrile-water=70:30), detector (Hitachi 655A-30, RI detector), data processor (Hitachi D-2000). [formula]
Where the reaction progress rate was made 100 when rotary shaking started at 55° C., a relative reaction progress rate after a definite period of time passed was calculated according to the above equation. The thus obtained value was made an enzyme activity retention rate. The fact that the enzyme activity of the immobilized CGTase was stabilized by the moranoline in accordance with the present invention is clearly shown.
The immobilized CGTase, 10 ml, obtained in Reference Example A was added to 100 ml of aqueous solution with the pH being not adjusted containing 2.5 w/v% of moranoline and 25 w/v% of Amicol No. 6L [manufactured by Nichiden Chemical Co., Ltd.] followed by rotary shaking at 55° C. After a definite period of time passed, the beads (immobilized CGTase) were filtered through a glass filter. After thoroughly washing with water, the enzyme activity of the immobilized CGTase was determined as follows. (Method for determination of enzyme activity of immobilized CGTase)
as §1, with “24 hours” for “24 hours.”, “reaction liquid,” for “reaction solution”, “DOWEX 50W X 2 (H+).” for “DOWEX 50W×2 (H ).”, “mm i.d. X 25” for “mm i.d.×25”
Where the reaction progress rate was made 100 when rotary shaking started at 55° C., a relative reaction progress rate after a definite period of time passed was calculated according to the above equation. The thus obtained value was made an enzyme activity retention rate.

## OC[C@H]1NC[C@H](O)[C@@H](O)[C@@H]1O [moranoline]
0 h, day 0, 55° C., start made 100
  activity at 25000 µg/mL: 100%
336 h, day 14, 55° C.
  activity at 25000 µg/mL: 100%
504 h, day 21, 55° C.
  activity at 25000 µg/mL: 103%
672 h, day 28, 55° C.
  activity at 25000 µg/mL: 102%
888 h, day 37, 55° C.
  activity at 25000 µg/mL: 101%
1272 h, day 53, 55° C.
  activity at 25000 µg/mL: 102%
1560 h, day 65, 55° C.
  activity at 25000 µg/mL: 104%
1872 h, day 78, 55° C.
  activity at 25000 µg/mL: 101%
2232 h, day 93, 55° C.
  activity at 25000 µg/mL: 99.7%
2400 h, day 100, 55° C.
  activity at 25000 µg/mL: 100%
2856 h, day 119, 55° C.
  activity at 25000 µg/mL: 97%
3360 h, day 140, 55° C.
  activity at 25000 µg/mL: 100%
3912 h, day 163, 55° C.
  activity at 25000 µg/mL: 99.3%
4272 h, day 178, 55° C.
  activity at 25000 µg/mL: 98.4%
4752 h, day 198, 55° C.
  activity at 25000 µg/mL: 92.5%
5040 h, day 210, 55° C.
  activity at 25000 µg/mL: 95.6%
5544 h, day 231, 55° C.
  activity at 25000 µg/mL: 92.5%
5904 h, day 246, 55° C.
  activity at 25000 µg/mL: 93%
6288 h, day 262, 55° C.
  activity at 25000 µg/mL: 92.3%
6576 h, day 274, 55° C.
  activity at 25000 µg/mL: 92.5%
6912 h, day 288, 55° C.
  activity at 25000 µg/mL: 91.7%
7248 h, day 302, 55° C.
  activity at 25000 µg/mL: 92%
7728 h, day 322, 55° C.
  activity at 25000 µg/mL: 92.7%
8136 h, day 339, 55° C.
  activity at 25000 µg/mL: 91.5%
8472 h, day 353, 55° C.
  activity at 25000 µg/mL: 93.9%
8784 h, day 366, 55° C.
  activity at 25000 µg/mL: 90%
9912 h, day 413, 55° C.
  activity at 25000 µg/mL: 90%

From patent US5256788A, “Moranoline derivatives and their production and the use of moranoline and its derivatives as a stabilizing agent for enzymes” (Nippon Shinyaku Co. Ltd., priority 1989, dated 1993)
